Test results from publication PMC9289467, “A Novel Multifunctional 5,6-Dimethoxy-Indanone-Chalcone-Carbamate Hybrids Alleviates Cognitive Decline in Alzheimer’s Disease by Dual Inhibition of Acetylcholinesterase and Inflammation” (Frontiers in Aging Neuroscience, 2022).

Key:
ACh = experiment: Brain ACh level, Amplex Red kit, APP/PS1 mice; format: in vivo, mouse; details: AP5 40 mg/kg intragastric once daily 5 months, vs APP/PS1 mice
Method: APP/PS1 mice of ages 6 months were randomly divided into vehicle (APP/PS1, n = 10) and treatment groups (AP5, n = 10), which were intragastrically administered with AP5 (40 mg/kg) once daily for consecutive 5 months. AP5 was dissolved in distilled water containing 1% sodium carboxymethyl cellulose.
The brain samples were weighed, homogenized in PBS solution, and centrifuged for 20 min at 25,000 g at 4°C. Amplex® Red acetylcholinesterase/acetylcholine assay kit (A12217, Thermo Fisher Scientific) was used to detect AChE activity and ACh levels in the supernatant in accordance with the manufacturer’s instructions.
Briefly, for ACh assay, the reactions were started by adding 100 µL of the Amplex Red reagent, HRP, choline oxidase, AChE working solution to each microplate well containing the controls and samples. For AChE assay, detection cocktail solution containing ACh, Amplex Red, choline oxidase and horseradish peroxidase was added toeach well. Assay plates were incubated at room temperature for 30 min and protected from light, followed by detecting fluorescence of resorufin (λex = 544 nm, λem = 590 nm) in a fluorescence microplate reader.
After deparaffinization and antigen retrieval, the sections were incubated with 0.3% hydrogen peroxide (H2O2) to inhibit endogenous peroxidase activity for 20 min and blocked by goat serum for 30 min at37°C. […]

[1] = Single-dose pharmacokinetics in mice (plasma and brain, UPLC-TSQ/MS); format: in vivo, C57BL/6J mice; details: mouse
Method: To determine the pharmacokinetics of AP5 in mice, the mice were administered a single dose of AP5 by i.v. and oral gavage dose routes. The plasma and brain homogenate were detected by UPLC-TSQ/MS(Thermo Fisher Scientific, Waltham, MA, United States). The plasma drug concentrations were analyzed for PK data by DAS (Drug and Statistics) Version 3.0 (BioGuider Corporation, Shanghai, China). Bioavailability (F%) after oral administration was calculated as AUCINF p.o./AUCINF i.v./4 × 100. AUCINF p.o. and AUCINF i.v. represent the area under the plasma concentration–time curve extrapolated to infinity after single-dose per os and intravenous injection, respectively. The extent of brain penetration was measured by the brain-to-plasma distribution ratio (B/P). The B/P value was calculated as: AUCINFbrain/AUCINF plasma × 100. AUCINF brain represents the area under the brain concentration–time curve extrapolated to infinity after a single-dose per os.
We next determine the pharmacokinetic profile of AP5 in male C57BL/6J mice given a single intravenous (i.v.) dose of 10 mg/kg or single per os (p.o.) dose of 40 mg/kg, respectively. […] Importantly, we determined AP5 in the brain homogenate with the highest concentration of 95.3 ng/mL at 2 h (Figures 1D,E). […]
Supplementary materials and methods
Prepations ofspecimen for pharmacokinetics analysis
24 h afterdosing. Brains were collected at0, 0.25, 0.5,2, 4,8 and 24 h after administration.Plasma extractions were performed by adding 90 μL methanol and 2 μL internalstandard letrozole (500 ng/mL) to a30 µL plasma sample. Brain samples were homogenized in 1 mL PBS per gram brain tissueby handheld homogenizer.
Then 90 μL methanol and 2 μL letrozolewere added to 30 µl brainhomogenates. The samples were vortexed for 3 min and centrifuged 15 min at25,000 g.The plasma and brainhomogenate were analyzed by UPLC-TSQ/MS (Thermo Fisher Scientific, Waltham, MA, USA). Samples were compared to a calibrationcurve prepared ina similarmanner by spiking blank controlplasma or homogenate with standards prepared inmethanol and then extractedas above. […]

Aβ42 oligomers = molecular target: T1, Aβ42 oligomers (Homo sapiens, UniProt P05067); experiment: Aβ42 self-oligomerization dot blot (A11 antibody); format: biochemical; details: oligomer-specific antibody A11
T1 construct: purchased Aladdin A118755
Method: The formation of Aβ40 or Aβ42 oligomers was monitored by dot blot with oligomer-specific antibody. Briefly, the resulting Aβ film was dissolved in ddH2O to form a 100 μM solution, and then the oligomerization reaction ([Kayed et al., 2003]) was initiated in absence or presence of different concentrations of AP5. An aliquot (2 μL) of each solution was dripped on a nitrocellulose membrane. The membrane was blocked with 5% non-fat milk in TBS for 1 h, incubated with the anti-β amyloid (MOAB-2, NBP2-13075SS, Novus Biologicals, Colorado, United States), anti-amyloid oligomers (A11, NBP1-97930, Novus Biologicals), or anti-amyloid fibrils (OC, NBP1-97930, Novus Biologicals) antibodies overnight at 4°C. The membrane was then incubated using HRP-conjugated secondary antibodies at room temperature for 1 h and then developed with ECL.

[2] = male, C57BL/6J, brain homogenate, po, brain, p.o. 40 mg/kg
[3] = male, C57BL/6J, iv, plasma, i.v. 10 mg/kg
[4] = male, C57BL/6J, plasma, iv, 10 mg/kg, i.v. 10 mg/kg
[5] = male, C57BL/6J, plasma, po, 40 mg/kg, p.o. 40 mg/kg
[6] = male, C57BL/6J, po, plasma, p.o. 40 mg/kg

T1 sequence (P05067 672-713 limits assumed): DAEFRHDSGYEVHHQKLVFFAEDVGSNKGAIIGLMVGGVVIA

With `CCN(C)C(=O)Oc1cccc(/C=C2\Cc3cc(OC)c(OC)cc3C2=O)c1` [AP5, (E)-3-((5,6-dimethoxy-1-oxo-1,3-dihydro-2H-inden-2-ylidene)-methyl)phenylethyl(methyl)carbamate] the “ACh levels in cortex and hippocampus” value (ACh) was “elevated levels of ACh”, the “B/P (brain-to-plasma distribution ratio, brain penetration)” value ([1]; AUCINF brain/AUCINF plasma × 100, p.o. 40 mg/kg, 40 mg/kg) was 10.23% and the Cl ([1]; brain, p.o. 40 mg/kg) was 896.2 mL/min/kg. For the same molecule, the Vss ([1]; brain, p.o. 40 mg/kg) was 412.6 L/kg, the AUC(0-inf) [1, 2] was 744 ng·h/mL and the AUC(0-t) [1, 2] was 706 ng·h/mL. It also gave a half-life [1, 2] of 5.32 h, an AUC(0-inf) [1, 3] of 2700 ng·h/mL and an AUC(0-t) [1, 3] of 2600 ng·h/mL. The clearance [1, 3] was 125 mL/min/kg, the half-life [1, 3] was 3.34 h and the Vd ([1]; male, C57BL/6J, iv, plasma, i.v. 10 mg/kg, read-out: Vss) was 36.3 L/kg. For the same molecule, the Tmax ([1]; male, C57BL/6J, brain homogenate, po, 40 mg/kg, brain, p.o. 40 mg/kg) was 1.5 h, the Cmax ([1]; male, C57BL/6J, brain homogenate, po, 40 mg/kg, p.o. 40 mg/kg) was 95.4 ng/mL and the Kp ([1]; male, C57BL/6J, brain/plasma, po, 40 mg/kg, AUCINF brain/AUCINF plasma × 100, p.o. 40 mg/kg, read-out: B/P (brain-to-plasma distribution ratio, brain penetration)) was > 0.1. For the same molecule, the Cmax [1, 4] was 5440 ng/mL, the Tmax [1, 4] was 0.083 h and the Cmax [1, 5] was 2090 ng/mL. The Tmax [1, 5] was 2 h, the bioavailability ([1]; male, C57BL/6J, plasma, oral, AUCINF p.o./AUCINF i.v./4 × 100, p.o. 40 mg/kg, i.v. 10 mg/kg, read-out: F (oral bioavailability)) was 67.2% and the AUC(0-inf) [1, 6] was 7260 ng·h/mL. For the same molecule, the AUC(0-t) [1, 6] was 6990 ng·h/mL, the half-life [1, 6] was 4.72 h and the Cl ([1]; plasma, p.o. 40 mg/kg) was 45.93 mL/min/kg. For the same molecule, the Vss ([1]; plasma, p.o. 40 mg/kg) was 18.79 L/kg and the “levels of oligomeric Aβ42” value (Aβ42 oligomers) was “decreased the levels”.
